In patent US8981106B2, “Pyrimidinecarboxamides as CXCR2 modulators” (Syntrix Biosystems, Inc., priority 2009, dated 2015):
“Also recorded” adds a separate entry of the source. Where two headings read alike, the source gives them in different places. Each block holds one molecule with its values, some of them ahead of it.

Experiments:
[1] = Crossover pharmacokinetic experiment in Beagle dogs; format: in vivo
Procedure: In this study, male Beagle dogs (n=5) were dosed intravenously on study day 1 with SX-576 in dimethylformamide/PEG400/saline (40:40:20) at a dose level of 5 mg/kg and a dose volume of 0.5 mL/kg. Blood samples were taken predose, and at time points 30, 60, 90, 120, 180, 360, 540 and 720 minutes. The blood was collected in tubes containing K2EDTA as an anticoagulant, and the tubes were centrifuged and the plasma fractions collected and frozen. After a one-week washout period, the same Beagle dogs were dosed orally with SX-576 in lipid based excipient Gelucire® 44/14 (Gattefosse) at a dose level of 5 mg/kg. Blood samples were then taken and plasma fractions collected as previously described. Prior to analysis, the plasma samples were thawed and diluted 1:3 into acetonitrile containing 1 μM of compound 153 as an internal standard. The resulting samples were centrifuged and the supernatant analyzed by LC-MS monitoring in multiple reaction monitoring mode. The samples were run concomitantly with a calibration curve of SX-576 in the same internal standard solution.
The lipid based excipient Gelucire® 44/14 is a self-emulsifying drug delivery system (SEDDS) that is able to solubilize both SX-517 and SX-576 into aqueous solutions via micellular formation. […] Therefore, lipid-based emulsifiers are important excipients for the oral delivery of SX-576.

CXCR2 [2] = molecular target: T1, CXCR2 (Homo sapiens (Human), UniProt P25025); experiment: Inhibition of GROα-mediated intracellular calcium release in human neutrophils (FLIPR-3 Ca2+ mobilization); format: cell-based
Target sequence in this assay (P25025 whole entry, the tested form may be a part): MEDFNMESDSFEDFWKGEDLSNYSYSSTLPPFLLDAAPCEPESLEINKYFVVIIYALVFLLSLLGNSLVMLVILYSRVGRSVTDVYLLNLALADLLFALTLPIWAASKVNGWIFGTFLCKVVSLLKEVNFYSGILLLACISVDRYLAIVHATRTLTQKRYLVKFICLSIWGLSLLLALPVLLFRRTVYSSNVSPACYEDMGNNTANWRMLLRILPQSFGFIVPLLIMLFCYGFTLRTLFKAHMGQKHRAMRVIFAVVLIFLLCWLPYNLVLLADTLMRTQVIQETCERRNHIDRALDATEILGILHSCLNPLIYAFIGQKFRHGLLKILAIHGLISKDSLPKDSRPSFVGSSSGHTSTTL

CXCR2 [3] = molecular target: T1, CXCR2; experiment: β-arrestin recruitment, β-galactosidase fragment complementation (DiscoveRx)
Target sequence in this assay (P25025 whole entry, species assumed, the tested form may be a part): as the sequence (P25025 whole entry, the tested form may be a part) above

CXCR2 [4] = molecular target: T1, CXCR2; experiment: 125I-IL-8 radioligand binding inhibition; conditions: concentrations up to 10 μM
Source text: In vitro experiments, in addition to those measuring calcium release from human PMNs, provided evidence that the mechanism of action of Compounds 1 and 2 are most consistent with an allosteric (non-competitive) mode of action.
Target sequence in this assay (P25025 whole entry, the tested form may be a part): as above

neutrophil influx [5] = experiment: Murine air pouch model of neutrophil chemotaxis (p.o.); format: in vivo, male CD-1 mice; conditions: for total neutrophil counts in the blood: high doses, compared to control animals; for neutrophil influx / neutrophil influx at high oral dose: p.o.
Procedure: Compounds 1 (SX-517) and 2 (SX-576) were also assayed in an in vivo air-pouch model of inflammation. SX-517 and SX-576 were able to attenuate neutrophil influx in the air-pouch model by about 50% at an oral dose of 0.2 and 0.05 mg/kg, respectively. […] More specifically, the procedure was performed by forming an air pouch on the backs of male CD-1 mice via the subcutaneous injection of air (2 mL). The next day, an additional subcutaneous injection of air (1.5 mL) was performed to reinflate the air pouch. The mice were given either vehicle control (Labrasol®) or test compound solubilized in Labrasol® via oral gavage. After 3 hours, either sterile phosphate buffered saline (PBS, 1 ml) or 2% carrageenan in sterile PBS (1 mL) was injected into the air pouch. After 4 hours, the mice were sedated with ketamine, and sacrificed by cervical dislocation. The exudate in the air pouch was collected by syringe, with an additional 2 mL wash with sterile PBS. The neutrophils were stained with trypan blue and counted on a hemocytometer under 20× magnification.

Aqueous solubility = format: physicochemical
CXCR2 [6] = molecular target: T1, CXCR2; experiment: Agonist activity: intracellular calcium release in human neutrophils in the absence of GROα; format: cell-based; conditions: relative to the response to 25 nM GROα
Procedure: In Tables 1-5, the IC50 or EC50 values were determined using the following assay. This assay measures intracellular calcium release via fluorescence as an indication of CXCR2 receptor activation by the physiologic agonist GROα. The assay is a Ca^2+ mobilization assay that measures changes in intracellular Ca^2+ with a FlexStation II scanning fluorometer using a FLIPR-3 Calcium Assay Kit (Molecular Devices, Sunnyvale, Calif.). The procedure is as follows:
9. The maximum change in fluorescence, expressed in arbitrary units over baseline (Max-Min) was used to determine the GROα response. […] Therapeutic Activity
The maximum change in fluorescence, expressed in arbitrary units over baseline (Max-Min), was used to determine the GROα response.
Intracellular calcium release is a hallmark of CXCR2 activation by endogenous agonists, such as GROα and IL-8.
Target sequence in this assay (P25025 whole entry, the tested form may be a part): as above

CXCR2 [7] = molecular target: T1, CXCR2; experiment: Wash-resistant inhibition of GROα-mediated calcium response after inhibitor washout; format: cell-based; conditions: 0.4, 2, 10 μM, 30 min incubation, washed, up to 6 h after washout
Target sequence in this assay (P25025 whole entry, the tested form may be a part): as above

neutrophil influx [8] = experiment: Murine air pouch model of neutrophil chemotaxis (i.v.); format: in vivo, male CD-1 mice; conditions: i.v., 0.02, 0.05, 0.2 and 1.0 mg/kg
Procedure: The procedure was performed by forming an air pouch on the backs of male CD-1 mice via the subcutaneous injection of air (2 mL). The next day, an additional subcutaneous injection of air (1.5 mL) was performed to reinflate the air pouch. The mice were given either vehicle control (dimethylformamide/PEG400/saline) or test compound solubilized in vehicle via tail vein injection. After 30 minutes, either sterile phosphate buffered saline (PBS, 1 ml) or 2% carrageenan in sterile PBS (1 mL) was injected into the air pouch. After 4 hours, the mice were sedated with ketamine, and sacrificed by cervical dislocation. The exudate in the air pouch was collected by syringe, with an additional 2 mL wash with sterile PBS. The neutrophils were stained with trypan blue and counted on a hemocytometer under 20× magnification.

pulmonary inflammation = experiment: Ozone rat model of pulmonary inflammation; format: in vivo, Sprague-Dawley rats; conditions: 1 mg/kg i.v., 1 ppm ozone, BALF at 24 hours
Procedure: Activity in this model of pulmonary inflammation would provide direct relevance towards the treatment of a number of pulmonary inflammatory diseases, including chronic obstructive pulmonary disease (COPD) and bronchopulmonary dysplasia (BPD). In this experiment, Sprague-Dawley rats (n=4 per cohort) were dosed intravenously at t=0 with either vehicle (negative and positive groups, dimethylformamide/PEG400/saline, 40:40:20) or SX-576 (1 mg/kg). The rats were then placed in air (negative group) or 1 ppm ozone (positive and SX-576 groups) for 4 hours. The rats were dosed again at t=5 and 9 hours. The rats were then sacrificed at t=24 hours, and the bronchoalveolar lavage fluid (BALF) was collected. The cells were spun down, stained with Wright-Giemsa and counted. In the negative groups, no neutrophils were observed when stained. As a measure of lung leakage/damage, protein levels were quantified in BALF by Bradford protein assay analysis.

- plasma level when dosed without excipient [1]: undetected in plasma
- IC50 (CXCR2 [2]; human neutrophils, 25 nM GROα, read-out: IC50): 38 ± 3 nM
- IC50 (CXCR2 [2]; in vitro, stated in the binding example, read-out: IC50 in vitro): ~60 nM
- activity on β-arrestin complexation with CXCR2 in the absence of IL8 (CXCR2 [3]): inverse agonists
- inhibition of β-arrestin recruitment following CXCR2 activation with IL8 (CXCR2 [3]): inhibited arrestin recruitment
- displacement of radiolabeled IL-8 binding to CXCR2 receptors (CXCR2 [4]): unable to significantly displace
- aqueous solubility (Aqueous solubility): poor aqueous solubility
- Magnitude of Agonist Response (% of GROα only Control) (CXCR2 [6]): did not show agonist activity
SMILES: O=C(Nc1ccc(F)cc1)c1ccc(SCc2ccccc2B(O)O)nc1 [Compound 1, 6-(2-borono-2-yl-benzylsulfanyl)-N-(4-fluoro-phenyl)-nicotinamide]
- total neutrophil counts in the blood (neutrophil influx [5]): not significantly changed
- attenuation of neutrophil influx (neutrophil influx [5]; oral dose 0.2 mg/kg): about 50%
- neutrophil influx (neutrophil influx [5]; 0.005 and 0.2 (mg/kg)): decrease of neutrophil influx
- neutrophil influx at high oral dose (neutrophil influx [5]; doses in excess of 10 mg/kg): increase in neutrophil influx

- bioavailability following oral administration ([1]; 5 mg/kg oral in Gelucire 44/14): improved the bioavailability
- plasma level when dosed without excipient [1]: undetected in plasma
- activity on β-arrestin complexation with CXCR2 in the absence of IL8 (CXCR2 [3]): inverse agonists
- aqueous solubility (Aqueous solubility): poor aqueous solubility
- Magnitude of Agonist Response (% of GROα only Control) (CXCR2 [6]): 100%
SMILES: O=C(Nc1ccc(F)cc1)c1ccc(SCc2cc(OC(F)(F)F)ccc2B(O)O)nc1 [Compound 2, 6-(2-boronic acid-5-trifluoromethoxy-benzylsulfanyl)-N-(4-fluoro-phenyl)-nicotinamide]
- inhibition of β-arrestin recruitment following CXCR2 activation with IL8 (CXCR2 [3]; listed as SX-576): inhibited arrestin recruitment; also recorded: more potent inhibitor than SX-517, comparable to the diarylurea SB225002
- wash-resistant inhibition of GROα mediated intracellular calcium release (CXCR2 [7]): dose-dependent and wash-resistant inhibition
- neutrophil influx (neutrophil influx [8]): significantly attenuate neutrophil influx
- total neutrophil counts in the blood (neutrophil influx [5]): not significantly changed
- attenuation of neutrophil influx (neutrophil influx [5]; oral dose 0.05 mg/kg): about 50%
- neutrophil influx (neutrophil influx [5]; 0.05 mg/kg): decrease of neutrophil influx
- neutrophil influx at high oral dose (neutrophil influx [5]; doses in excess of 1 mg/kg): increase in neutrophil influx
- influx of macrophages into the lungs (pulmonary inflammation): significantly decreased
- influx of neutrophils into the lungs (pulmonary inflammation): significantly decreased
- ozone-induced lung damage (protein levels in the BALF) (pulmonary inflammation): protected against ozone-induced lung damage
